Test results as given in patent US20230381170A1, “METHOD FOR TREATING ALS/FTD THROUGH DEGRADATION OF RNA REPEAT EXPANSION” (University of Florida Research Foundation, Incorporated, priority 2020, published 2023).
Like-named read-outs stand apart in the source and are kept apart here.

Key:
r(G4C2)8 [1] = test: Biolayer interferometry (BLI) binding; details: for Kd: BLI
Procedure: (§1) Biolayer Interferometry (BLI). BLI studies were performed similarly as previously described (12) using an Octet RED96. Briefly, 5′-biotinylated nucleic acids were folded by heating at 95° C. for 4 min in 10 mM sodium phosphate buffer, pH 7, followed by slowly cooling to room temperature. Then, to the folded RNA were added the following components: 1.386 mL 1×DPBS (21-031-CV, Corning), 180 μL freshly prepared 1% (w/v) BSA, 36 μL 1% (v/v) Tween-20, and 18 μL DMSO (1% final concentration) in a final volume of 1.8 mL. The final concentration of RNA was 0.5 μM. Separately, serial dilutions of the compound of interest were prepared in the same buffer.
(§2) The resulting curves were analyzed and processed using Octet Data Analysis software version 9.1 by subtracting the response of the sensors recorded upon incubation with solutions containing compound and no RNA (parallel reference). The data were then fitted assuming reversible binding using the entire time interval for association and dissociation using either 1:1 or the 2:1 heterogeneous binding curve fitting model. The reported Kd,n, kon,n and koff,n values represent the average of two independent experiments.

[2] = system: r(G4C2)8 and hnRNP H1 complex; test: TR-FRET hnRNP H binding assay; format: biochemical; details: for IC50: inhibiting r(G4C2)8 and hnRNP H1 complex formation, 7 in the absence of Rnase L
Procedure: TR-FRET hnRNP H Binding Assay. TR-FRET assays were performed as previously described (12). The mixture was incubated for 15 min at room temperature and then hnRNP H1-His6 was added. After an additional 15 min incubation, streptavidin-XL665 (HTRF, Cisbio Bioassays) and anti-His6-Tb (HTRF, Cisbio Bioassays) were added to a final concentration of 40 nM and 0.44 ng/μL, respectively. After incubating for 1 h, TR-FRET was measured as previously described (12).

d(G4C2)8 = test: Biolayer interferometry (BLI) binding; details: BLI
Procedure: as §1
as §2, with “Streptavidin sensors (SA, #18-5019, ForteBio) were equilibrated with buffer for 10 min at room temperature using 96-well black microplate (Greiner; Catalog #: 655209). The following time intervals were used during data acquisition (30° C. with shaking at 1000 rpm): baseline step, 180 s; loading of RNA, 900 s; washing, 180 s; association of compound, 1800 s; and dissociation of compound, 1800 s. The resulting” for “The resulting”

r(G2C4)8 = test: Biolayer interferometry (BLI) binding; details: BLI
Procedure: as §1
as §2, with “Streptavidin sensors (SA, #18-5019, ForteBio) were equilibrated with buffer for 10 min at room temperature using 96-well black microplate (Greiner; Catalog #: 655209). The following time intervals were used during data acquisition (30° C. with shaking at 1000 rpm): baseline step, 180 s; loading of RNA, 900 s; washing, 180 s; association of compound, 1800 s; and dissociation of compound, 1800 s. The resulting” for “The resulting”

r(G2C2)10 = test: Biolayer interferometry (BLI) binding; details: BLI; read-out: Kd, 1
Procedure: as §1
as §2, with “Streptavidin sensors (SA, #18-5019, ForteBio) were equilibrated with buffer for 10 min at room temperature using 96-well black microplate (Greiner; Catalog #: 655209). The following time intervals were used during data acquisition (30° C. with shaking at 1000 rpm): baseline step, 180 s; loading of RNA, 900 s; washing, 180 s; association of compound, 1800 s; and dissociation of compound, 1800 s. The resulting” for “The resulting”

[3] = system: quadruplex form of r(G4C2) repeats, r(G2C2)10, d(G4C2)8, d(G2C2)10; test: In vitro Chem-CLIP, other nucleic acids; format: binding
r(G4C2)8 [4] = test: In vitro Chem-CLIP and C-Chem-CLIP; format: binding
Procedure: In vitro Chemical Cross-linking and Isolation by Pull-Down (Chem-CLIP) and Competitive Chemical Cross-linking and Isolation by Pull-Down (C-Chem-CLIP): Approximately 10,000 counts of ^32P 5′-end labeled r(G4C2)8 was folded in 1×Folding Buffer at 95° C. for 1 min. After cooling to room temperature, the Chem-CLIP probe at the desired concentrations (5, 10, 100, 500, 1000, 5000, 10000 nM) was added, and the samples were incubated at 37° C. for 18 h. For C-Chem-CLIP studies, the parent compound (10, 100, 500, 1000, 5000, 10000 nM) was incubated with RNA for 1 h before addition of the Chem-CLIP probe (500 nM).
Cross-linked RNAs were clicked to biotin […] azide (10 μL of a 5 mM stock solution in DMSO) by incubating in a solution containing 25 mM HEPES (pH 7.1), 250 mM sodium ascorbate, 10 mM CuSO4, and 50 mM THPTA (tris-hydroxypropyltriazolylmethylamine) for 6 h at 37° C. A 300 μL of streptavidin-agarose beads (Sigma-Aldrich) was washed three times and then resuspended in 1×PBS. An aliquot (20 μL) of the slurry was added to each sample, which was incubated for 1 h at room temperature. The samples were centrifuged and the supernatant containing unbound RNA was transferred to an unused tube. The beads were then washed three times with 1×PBS supplemented with 0.10% (v/v) Tween-20 and centrifuged, with each wash supernatant being added to the tube containing unbound RNA. The amounts of radioactivity in the supernatant and associated with the beads were quantified with a Beckman Coulter LS6500 Liquid Scintillation Counter.

C9orf72 mRNA variants [5] = test: Cellular Chem-CLIP in patient-derived iPSCs; format: cell-based, human
Procedure: (§3) Cellular Chem-CLIP. For cellular Chem-CLIP studies, LCLs were grown in T-25 flasks while iPSCs were grown in 100 mm dishes. The cells were treated with Chem-CLIP probe (500 nM) overnight at 37° C. After removing the medium and washing with 1×PBS, fresh, ice-cold 1×PBS was added, and crosslinking was performed by UV irradiation at 365 nm for 10 min. The cells were collected, and total RNA was extracted with Qiagen micro RNEasy Kit per the manufacturer's protocol. Dynabeads MyOne Streptavidin C1 beads (Thermo Fisher Scientific 65001) were pre-loaded with biotin disulfide azide (Bioconjugate Technologies LLC dba Click Chemistry Tools) by incubating (10 μL of a 5 mM stock solution in DMSO in 500 μL PBS) with beads at room temperature for 30 min before magnetic capture. The beads were washed with High Salt Wash Buffer: (10 mM Tris-HCl pH 7.0, 1 mM EDTA, 4 M NaCl, 0.2% Tween-20) followed by two washes with Nanopure water. The click reaction between cross-linked RNAs and the Dynabeads displaying biotin disulfide azide was completed in a solution containing 25 mM HEPES, pH 7.1, 250 mM sodium ascorbate, 10 mM CuSO4, and 50 mM THPTA for 6 h at 37° C. […] The levels of C9orf72 mRNA in the purified, pull-down fraction were then measured by RT-qPCR as described above.

C9orf72 mRNA variants [6] = test: Cellular Chem-CLIP in patient-derived LCLs; format: cell-based, human; details: lymphoblastoid cells
Procedure: as §3

[7] = system: C9orf72 intron 1 harboring r(G4C2)exp; test: C9orf72 intron 1 RT-qPCR in patient-derived LCLs; format: cell-based, human; details: increasing concentrations
Procedure: Measuring Levels of C9orf72 and C9orf72 Variants by RT-qPCR. LCLs were seeded in 6-well plate (˜10^6 cells in 2 mL of growth medium) and incubated overnight at 37° C. Cells were then treated with various concentrations of compound for 24 h or with G4C2-ASO and Control-ASO (100 nM), delivered by transfection with Lipofectamine RNAiMax. RNA was extracted as described above and the expression of C9orf72 variants was determined by RT-qPCR. […] For compound treatment well, medium change was performed with fresh compound every 3-4 days. RNA was extracted as described above and the expression of C9orf72 variants was determined by RT-qPCR.

C#CCn1c2ccc(OC)cc2c2c(C)c3cnccc3c(C)c21 [Compound 1b]
Kd (r(G4C2)8 [1]; r(G4C2) repeats, read-out: Kd): 11000 ± 140 nM | avidity weaker than 1 (r(G4C2)8 [1]; Kd relative to 1): ~37 fold

Cc1c2ccncc2c(C)c2c1[nH]c1ccc(OCCOCCOCCOCCOCCOCCOc3ccc4[nH]c5c(C)c6ccncc6c(C)c5c4c3)cc12 [Compound 2]
more potent than 1 ([2]; IC50 relative to 1): 10 fold | IC50 [2]: ~1800 nM | Kd (d(G4C2)8; read-out: Kd, 1): 1.3 µM | Kd (d(G4C2)8; read-out: Kd, 2): 38 µM | Kd (r(G2C4)8; read-out: Kd, 1): 32 µM | Kd (r(G2C4)8; read-out: Kd, 2): 120 µM | Kd (r(G2C2)10): 6 µM | Kd (r(G4C2)8 [1]; read-out: Kd): 50 ± 8 nM | Kd (r(G4C2)8 [1]; read-out: Kd, 2): 120 nM

C#CCCC1(CCC(=O)N(CCOCCOCCOc2ccc3[nH]c4c(C)c5ccncc5c(C)c4c3c2)CCOCCOCCOc2ccc3[nH]c4c(C)c5ccncc5c(C)c4c3c2)N=N1 [Compound 4]
pull-down of other nucleic acids more than 5 [3]: did not statistically significantly pull-down | RNA pulled down (r(G4C2)8 [4]; 500 nM compound): ~40% | enrichment of variants that do not contain the repeat expansion (C9orf72 mRNA variants [5]): no enrichment | enrichment of variants with r(G4C2)exp (C9orf72 mRNA variants [5]; 500 nM probe): 2.3±0.2 fold | enrichment of variants with r(G4C2)exp (C9orf72 mRNA variants [6]; 500 nM probe): 1.9±0.4 fold | enrichment of variants that do not contain the repeat expansion (C9orf72 mRNA variants [6]): no enrichment

C#CCCC1(CCC(=O)NCCC)N=N1 [Compound 5]
RNA pulled down (r(G4C2)8 [4]; all concentrations tested, up to 10 μM): < 25%

CC(=O)N(CCOCCOCCOc1ccc2[nH]c3c(C)c4ccncc4c(C)c3c2c1)CCOCCOCCOc1ccc2[nH]c3c(C)c4ccncc4c(C)c3c2c1 [Compound 6]
IC50 [2]: 2300 ± 300 nM | C9orf72 intron 1 levels on co-treatment with constant concentration of 7 [7]: dose-dependently restored | Kd (r(G4C2)8 [1]; exponent printed in row below, read-out: Kd, 1): 200 nM | Kd (r(G4C2)8 [1]; read-out: Kd, 2): 10600 nM
